Target: T1, pp60c-Src (Homo sapiens, UniProt P12931)
T1 construct: made in house; elsewhere 3Y1 rat fibroblasts are transfected with pcSrc531RI (pcDNA3.1)
Assay: Competitive inhibition of enolase phosphorylation by Src kinase
Format: biochemical
Conditions: 1 μM acid treated enolase; read-out: K50% competitive inhibition of enolase phosphorylation
Procedure: A library of peptides to be tested as antagonists of pp60 c-Src mutant tyrosine kinase are synthesized according to the procedure disclosed in U.S. Pat. No. 5,532,167 to Cantley, which is incorporated herein by way of reference. Accordingly a peptide Ala-Glu-Glu-Glu-Ile-Tyr-Gly-Glu-Phe-Glu-Ala-Lys-Lys-Lys-Lys is synthesized as an optimal substrate/antagonist for mutant Src tyrosine kinase. The kinetic studies are carried out as follows. Purified mutant kinase is immobilized on protein A beads and kinase reaction is performed in 20 μl of 50 mM Tris pH 7.0 buffer containing 50 mM NaCl, 10 mM MgCl2, 10 μM ATP 5 μCi [gamma-^32P]-ATP (3000 mCi/mmol, NEN) and various dilutions of the peptide. For the experiment measuring the competitive inhibition of c-Src activity by the Src motif-containing peptide, 1 μM (final concentration) acid treated enolase (trans-phosphorylation) is included. After 2.5 minutes incubation, the supernatants are spotted on phosphocellulose paper, washed four times with 75 mM phosphoric acid, and radioactivity counted in a scintillation counter. For phosphorylation of enolase, the reaction is stopped by adding SDS loading buffer and the proteins are resolved on 10% SDS-PAGE gels. The Km and Vmax are calculated using a standard computer software. The peptide is a good substrate for pp60c-Src, with Km of 2 μM and Vmax of 0.9 μM/mg/min. […]

T1 sequence (P12931 2-530): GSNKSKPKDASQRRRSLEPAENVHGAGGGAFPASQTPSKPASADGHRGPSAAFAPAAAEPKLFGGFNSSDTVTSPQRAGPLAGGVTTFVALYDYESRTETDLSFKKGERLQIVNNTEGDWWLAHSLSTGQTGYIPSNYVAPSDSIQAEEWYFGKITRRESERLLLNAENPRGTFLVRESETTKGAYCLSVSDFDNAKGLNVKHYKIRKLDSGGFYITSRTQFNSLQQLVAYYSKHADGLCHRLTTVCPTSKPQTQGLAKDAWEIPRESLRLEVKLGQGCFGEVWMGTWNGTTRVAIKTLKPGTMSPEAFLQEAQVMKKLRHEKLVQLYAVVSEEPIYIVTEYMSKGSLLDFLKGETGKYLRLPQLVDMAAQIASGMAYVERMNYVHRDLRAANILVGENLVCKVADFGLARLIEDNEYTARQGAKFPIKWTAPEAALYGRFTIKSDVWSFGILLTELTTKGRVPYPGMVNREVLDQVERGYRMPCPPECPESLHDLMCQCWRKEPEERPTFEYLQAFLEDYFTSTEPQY

IC50: 5 µM
SMILES: CC[C@H](C)[C@H](NC(=O)[C@H](CCC(=O)O)NC(=O)[C@H](CCC(=O)O)NC(=O)[C@H](CCC(=O)O)NC(=O)[C@H](C)N)C(=O)N[C@@H](Cc1ccc(O)cc1)C(=O)NCC(=O)N[C@@H](CCC(=O)O)C(=O)N[C@@H](Cc1ccccc1)C(=O)N[C@@H](CCC(=O)O)C(=O)N[C@@H](C)C(=O)N[C@@H](CCCCN)C(=O)N[C@@H](CCCCN)C(=O)N[C@@H](CCCCN)C(=O)N[C@@H](CCCCN)C(=O)O [Ala-Glu-Glu-Glu-Ile-Tyr-Gly-Glu-Phe-Glu-Ala-Lys-Lys-Lys-Lys]

From patent publication US6764833B1, “Mutated Src oncogene composition and methods” (University of South Florida, priority 1999, dated 2004)
